The record followed here is PubChem BioAssay (NCI).

Holding throughout (experiment): DTP human tumour cell line panel, 48 h
Assay [1] relates to IGROV1 ovarian.
Assay [2] relates to RXF 393 renal.
For assay [3], the system named is SK-MEL-2 melanoma.
Assay [4] concerns SF-268 CNS.
Assay [5] deals with UACC-257 melanoma.
In assay [6] the test system is CAKI-1 renal.
The subject of assay [7] is K-562 leukemia.
Assay [8] has as its system NCI-H226 lung.
Assay [9] deals with SNB-19 CNS.

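Each compound was tested at five concentrations against cells in 96-well plates for 48 hours. Here, GI50 denotes the concentration required for 50% inhibition of growth. TGI is the concentration that stops growth completely.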

What is called TGI is the concentration giving total growth inhibition. Low readings indicate more potent growth arrest, high ones less potent growth arrest. In the case of `COC(=O)C1=CC2OC13CC1CCC3(C2=O)C1(C)C` (stereo unspecified), the TGI in assay [1] came to 39.9 µM; in assay [2] it was 25.8 µM; in [3], 28.7 µM; in assay [4] it was 23.2 µM; in assay [5], 24.1 µM; in assay [6], 7.37 µM. Moreover, the values for the TGI in assay [7], in assay [8] and in [9] were 56.4 µM, 34.2 µM and 52.3 µM, respectively.

On to `CCC(=C(c1ccc(OCc2ccccc2)cc1)c1ccc(OCc2ccccc2)cc1)c1ccc(OC)cc1`, for which the TGI in [1], in [2], in assay [3], in [4], in assay [6] and in [7] was above 100 µM in each case. Further, the TGI in [8] and in [9] was above 100 µM throughout.

Regarding `CCOC(=O)C1=C(C)N(NC(=O)c2ccccc2)C2(O)CCCC12C(=O)OCC` (stereo unspecified), the TGI in [1], in assay [2], in assay [3], in assay [4], in assay [5] and in assay [6] was above 100 µM throughout. Moreover, the TGI in [7], in assay [8] and in assay [9] was above 100 µM throughout.

Turning to `Cc1ccc(S(=O)(=O)N/N=C(\C(=O)Nc2cccc([N+](=O)[O-])c2)c2nc3ccc([N+](=O)[O-])cc3[nH]c2=O)cc1`, the TGI in assay [1], in assay [2], in assay [3], in assay [4], in [5] and in assay [6] was above 100 µM in each case. In addition, the TGI in assay [7], in assay [8] and in assay [9] was above 100 µM each time.

In the case of `COC(=O)C1C(=O)O[C@@H](c2ccc(OC)cc2OC)C1C(=O)OC` (stereo partly specified), the TGI in assay [1], in [2], in [4], in assay [5], in assay [6] and in assay [7] was above 100 µM in each case. Also, the total growth inhibition concentration (TGI) in [8] and in assay [9] was above 100 µM each time.

As for `Clc1ccc2nc(CCSCCc3nc4ccc(Cl)cc4[nH]3)[nH]c2c1`, the TGI in assay [1] is 25.4 µM; in assay [2], 38.6 µM; in assay [3], 28.8 µM; in assay [5], 26.3 µM; in assay [6], 20.2 µM; in [7], 38.3 µM. The TGI in assay [8] came out at 41.8 µM.

As to `Cn1c2cccc3nnc4cccc(c4c32)n1C`, the TGI in assay [1], in [2], in assay [3], in assay [4], in assay [5] and in assay [6] was above 100 µM throughout. Also, the TGI in assay [7], in assay [8] and in assay [9] was above 100 µM each time.

As to `O=C(CC1(O)C(=O)Nc2c(Cl)cc(Cl)cc21)c1ccc2ccccc2c1` (stereo unspecified), the TGI in assay [1] stood at 23.1 µM; in [2], 20.9 µM; in assay [3], 16.3 µM; in [4], 31.8 µM; in assay [5] it was 27.1 µM; in assay [6], 19.8 µM. For the same molecule, the TGI in [7] came out at 18.3 µM; in assay [9], 25.4 µM.

In the case of `Cc1ccc2[nH]c(=O)c(C(C#N)c3ccccc3)nc2c1` (stereo unspecified), the TGI in [1] is above 100 µM; in [2], 78.8 µM; in assay [3], 65.4 µM; in assay [4], above 100 µM; in assay [5] it was above 100 µM; in [6], 76.9 µM. Further, the figures for the total growth inhibition concentration (TGI) in assay [7], in [8] and in assay [9] were above 100 µM, above 100 µM and 89.2 µM, respectively.

In general, GI50 refers to the concentration giving 50% growth inhibition. `CCC[CH2][Sn]([CH2]CCC)([S]C1=NCCS1)[S]C1=NCCS1`: the GI50 in assay [1] was 1.3 µM; in assay [2], 0.0846 µM; in [3], 0.194 µM; in [4] it was 0.254 µM; in [5], 0.323 µM; in [6], 0.0928 µM. Further, the GI50 in assay [7] was 0.0655 µM; in assay [8] it was 0.741 µM; in [9], 0.3 µM. In addition, the TGI in [1] was found to be 2.74 µM; in [2], 0.301 µM; in assay [3] it was 0.566 µM; in assay [4] it was 0.908 µM; in assay [5], 1.44 µM; in assay [6], 0.51 µM. In addition, the TGI was determined as 1.05 µM in assay [7], 2.12 µM in assay [8] and 1.12 µM in [9].

On to `O=C1c2ccccc2C(=O)c2nc(-c3ccccc3)c(-c3ccccc3)nc21`, for which the TGI was above 100 µM in assay [2]; above 100 µM in assay [3]; above 100 µM in assay [4]; above 100 µM in assay [6]; above 100 µM in assay [7]; above 31.6 µM in [8]. In assay [9], this molecule registered a TGI above 100 µM.

For the molecule `O=C(C=Nc1ccccc1C(=O)[O-])c1cccs1.O=C(C=Nc1ccccc1C(=O)[O-])c1cccs1.[Cu+2]`, the TGI in assay [1], in assay [3], in assay [4], in [5], in [6] and in [7] was above 100 µM in each case. In addition, the TGI in assay [9] is above 100 µM.

Turning to `COc1ccc2c(c1)[n+]([O-])c(-c1nc3ccccc3s1)c(N)[n+]2[O-]`, the concentration for total growth inhibition (TGI) in assay [1], in assay [3], in [5], in [6], in assay [7] and in assay [8] was above 100 µM each time. In assay [9], this molecule yielded a TGI above 100 µM.

For `Cc1ccc(C2=NO[C@@H]3C(=O)N(c4ccc(Cc5ccc(N6C(=O)[C@H]7C(c8ccc(C)cc8)=NO[C@H]7C6=O)cc5)cc4)C(=O)[C@H]23)cc1`, the TGI in assay [1], in [2], in assay [3], in assay [4], in assay [5] and in [6] was above 100 µM in each case. The total growth inhibition concentration (TGI) in assay [7] and in assay [8] was above 100 µM throughout.

As to `CC(=O)Nc1ccc(/C=C/C(=O)c2sc(C(N)=S)nc2C)cc1`, the TGI in [1], in assay [2], in assay [3], in assay [4], in assay [5] and in assay [6] was above 100 µM in each case. Moreover, the TGI in assay [7] and in assay [8] was above 100 µM each time.

With `CCCCCCCCCC(=O)OCC1OC(n2cc(F)c(=O)[nH]c2=O)C(N)C(OC(=O)CCCCCCCCC)C1O` (stereo unspecified), the TGI in assay [1] is above 100 µM; in assay [2], 31.9 µM; in assay [3], 29.6 µM; in assay [4], 40.2 µM; in [5] it was 39 µM; in assay [6], above 100 µM. For the same molecule, the TGI in assay [7] turned out to be 36.7 µM; in [9] it was 33.6 µM.

For the molecule `COc1ccccc1NC(=O)C1=C(C)NC(C)=C(C(=O)Nc2ccccc2OC)C1c1ccccc1OC`, the TGI in [1], in assay [3], in assay [4], in assay [5], in assay [6] and in [7] was above 100 µM throughout. Moreover, the concentration for total growth inhibition (TGI) in assay [8] and in [9] was above 100 µM each time.

As to `CC1C(=O)N(C)C2(CO)C(=O)O[C@H](C)C12O` (stereo partly specified), the TGI in assay [1], in assay [2], in assay [3], in assay [4], in [6] and in assay [7] was above 100 µM in each case. The molecule also had a TGI in assay [9] above 100 µM.

For `O=C(CC(=O)C(F)(F)F)c1csc2ccccc12`, the TGI in assay [1] was above 100 µM; in assay [3] it was 53.7 µM; in assay [4], above 100 µM; in assay [5], above 100 µM; in assay [7], above 100 µM; in [9] it was above 100 µM.

Take `COC(=O)C1=CC2OC1(C)C1(CC1)C2=O` (stereo unspecified): the concentration for total growth inhibition (TGI) in assay [1] stood at 35.9 µM; in [2] it was 28.9 µM; in assay [4], 43.3 µM; in assay [5] it was 31 µM; in assay [6] it was 33.5 µM; in [7] it was 41.9 µM. Further, the TGI in assay [8] was 43.5 µM; in assay [9], above 100 µM.

As to `COc1ccc(OC)c2cc(C3(C)SCCCS3)ccc12`, the TGI in assay [1] is above 100 µM; in assay [2], 77 µM; in [3], above 100 µM; in assay [4] it was above 100 µM; in assay [5], above 100 µM; in [6], above 100 µM. In addition, the TGI in assay [7] and in assay [9] was above 100 µM in each case.

Turning to `Cc1c(CCl)c(=O)oc2c(C)c3occ(CCl)c(=O)c3cc12`, the TGI in assay [1] was 40.9 µM; in [2], 30.9 µM; in [3] it was above 100 µM; in [4], 71.7 µM; in assay [5] it was above 100 µM; in assay [7] it was 23.6 µM. The TGI in [8] came out at 48.7 µM; in assay [9], 54.7 µM.

`Cc1cc(C)n(-c2c(O)ccc(O)c2-n2nc(C)cc2C)n1`: the TGI in [1], in [2], in assay [3], in [4], in assay [6] and in assay [7] was above 100 µM throughout. In assay [9], this molecule displayed a TGI above 100 µM.
